This passage reports IC50 results from US10526336B2, “Fused heteroaryl derivatives as orexin receptor antagonists” (Merck Sharp & Dohme Corp., priority 2014, dated 2020).

The assay has as its target human orexin-2 receptor (Homo sapiens (Human), UniProt O43614). The experiment in a line: FLIPR Ca2+ Flux Assay, orexin-2 receptor antagonism in CHO cells. Format: cell-based. The following applies: CHO cells expressing the human orexin-2 receptor; agonist 70 pM Ala-6,12 orexin-A; read-out: hOX2 FLIPR IC50. Put shortly:
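CHO cells expressing rat OX1R or human OX2R, Fluo-4AM loaded, given compounds for 5 min, then challenged with 70 pM Ala-6,12 human orexin-A in HBSS/HEPES/BSA/probenecid, pH 7.4. FLIPR calcium fluorescence recorded 5 min; peak height versus agonist-alone gives IC50.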

Sequence of human orexin-2 receptor (O43614 whole entry): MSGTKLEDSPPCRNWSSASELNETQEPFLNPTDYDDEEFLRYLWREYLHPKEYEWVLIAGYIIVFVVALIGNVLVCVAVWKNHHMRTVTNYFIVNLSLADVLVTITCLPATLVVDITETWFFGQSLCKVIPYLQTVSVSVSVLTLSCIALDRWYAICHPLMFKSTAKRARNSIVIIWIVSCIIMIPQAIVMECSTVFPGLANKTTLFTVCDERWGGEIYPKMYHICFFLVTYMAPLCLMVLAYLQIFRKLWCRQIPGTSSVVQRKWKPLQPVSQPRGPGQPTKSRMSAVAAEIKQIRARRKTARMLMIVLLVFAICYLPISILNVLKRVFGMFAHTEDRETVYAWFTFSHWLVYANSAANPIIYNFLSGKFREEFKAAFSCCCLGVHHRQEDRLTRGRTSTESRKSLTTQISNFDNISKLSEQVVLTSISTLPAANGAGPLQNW

For `CCOc1ccccc1C(=O)N1C[C@H](Oc2ccnc3ocnc23)CC[C@H]1C` [Example 94, (2-ethoxyphenyl)((2R,5R)-2-methyl-5-(oxazolo[5,4-b]pyridin-7-yloxy)piperidin-1-yl)methanone], the IC50 turned out to be 24.4 nM. Take `C[C@@H]1CC[C@@H](Oc2nccn3c(C(F)(F)F)cnc23)CN1C(=O)c1ccccc1C1(C#N)CC1` [Example 59, 1-(2-((2R,5R)-2-methyl-5-((3-(trifluoromethyl)imidazo [1,2-α]pyrazin-8-yl)oxy)piperidine-1-carbonyl)phenyl) cyclopropanecarbonitrile]: the IC50 came to 12.8 nM.

As for `C[C@@H]1CC[C@@H](Oc2nccn3nccc23)CN1C(=O)c1ccccc1-n1nccn1` [Example 69, (2-(2H-1,2,3-triazol-2-yl)phenyl)((2R,5R)-2-methyl-5-(pyrazolo[1,5-a]pyrazin-4-yloxy)piperidin-1-yl)methanone], the IC50 is 26.8 nM.

Turning to `Cc1cn2ccnc(O[C@@H]3CC[C@@H](C)N(C(=O)c4cscc4-n4nccn4)C3)c2n1` [Example 8, (4-(2H-1,2,3-triazol-2-yl)thiophen-3-yl)((2R,5R)-2-methyl-5-((2-methylimidazo[1,2-α]pyrazin-8-yl)oxy)piperidin-1-yl)methanone], the IC50 was 39.1 nM. For the compound `C[C@@H]1CC[C@@H](Oc2ccnc3ocnc23)CN1C(=O)c1ccccc1-n1ncnn1` [Example 92, (2-(2H-tetrazol-2-yl)phenyl)((2R,5R)-2-methyl-5-(oxazolo [5,4-b]pyridin-7-yloxy)piperidin-1-yl)methanone], the IC50 came out at 36.7 nM.

Turning to `C[C@@H]1CC[C@@H](Oc2nccc3c2ncn3C)CN1C(=O)c1ccccc1-n1nccn1` [Example 98, (2-(2H-1,2,3-triazol-2-yl)phenyl)((2R,5R)-2-methyl-5-((1-methyl-1H-imidazo[4,5-c]pyridin-4-yl)oxy)piperidin-1-yl)methanone], the IC50 was 28.8 nM. With `C[C@@H]1CC[C@@H](Nc2nccc3nn(C)cc23)CN1C(=O)c1ccccc1-n1nccn1` [Example 97, (2-(2H-1,2,3-triazol-2-yl)phenyl)((2R,5R)-2-methyl-5-((2-methyl-2H-pyrazolo[4,3-c]pyridin-4-yl)amino)piperidin-1-yl) methanone] the figure was 124 nM; with `CC(C)Oc1ncccc1C(=O)N1C[C@H](Oc2nccn3nccc23)CC[C@H]1C` [Example 83, (2-isopropoxypyridin-3-yl)((2R,5R)-2-methyl-5-(pyrazolo[1,5-α]pyrazin-4-yloxy)piperidin-1-yl)methanone], 49.1 nM; with `C[C@@H]1CC[C@@H](Oc2nccn3c(C(F)(F)F)cnc23)CN1C(=O)c1ccccc1-n1nccn1` [Example 57], 13.1 nM. For the compound `COCc1ccccc1C(=O)N1C[C@H](Oc2nccn3c(C(F)F)cnc23)CC[C@H]1C` [Example 45, ((2R,5R)-5-((3-(difluoromethyl)imidazo[1,2-α]pyrazin-8-yl)oxy)-2-methylpiperidin-1-yl)(2-(methoxymethyl)phenyl)methanone], the IC50 amounted to 108 nM. Take `C[C@@H]1CC[C@@H](Oc2nccn3nccc23)CN1C(=O)c1ccccc1-c1ncccn1` [Example 85, ((2R,5R)-2-methyl-5-(pyrazolo[1,5-a]pyrazin-4-yloxy)piperidin-1-yl)(2-(pyrimidin-2-yl)phenyl)methanone]: the IC50 was determined as 15.5 nM.

Take `C[C@@H]1CC[C@@H](Oc2nccn3c(C(F)F)cnc23)CN1C(=O)c1ccsc1-n1nccn1` [Example 40, (2-(2H-1,2,3-triazol-2-yl)thiophen-3-yl)((2R,5R)-5-((3-(difluoromethyl)imidazo[1,2-α]pyrazin-8-yl)oxy)-2-methylpiperidin-1-yl)methanone]: the IC50 is 10.5 nM. As for `C[C@@H]1CC[C@@H](Oc2nccn3c(C(F)(F)F)cnc23)CN1C(=O)c1cccnc1OCC(F)F` [Example 64, (2-(2,2-difluoroethoxy)pyridin-3-yl)((2R,5R)-2-methyl-5-((3-(trifluoromethyl)imidazo [1,2-α]pyrazin-8-yl)oxy)piperidin-1-yl)methanone], the figure is 17.4 nM. On to `C[C@@H]1CC[C@@H](Oc2nccn3c(C(F)F)cnc23)CN1C(=O)c1cccnc1OCC(F)F` [Example 51, (2-(2,2-difluoroethoxy)pyridin-3-yl)((2R,5R)-5-((3-(difluoromethyl)imidazo[1,2-α]pyrazin-8-yl)oxy)-2-methylpiperidin-1-yl) methanone], for which the IC50 was 31.8 nM. As to `C[C@@H]1CC[C@@H](Oc2nccn3c(C(F)F)cnc23)CN1C(=O)c1cccnc1OCC(F)(F)F` [Example 50, ((2R,5R)-5-((3-(difluoromethyl)imidazo[1,2-α]pyrazin-8-yl)oxy)-2-methylpiperidin-1-yl)(2-(2,2,2-trifluoroethoxy)pyridin-3-yl)methanone], the IC50 was determined as 26.5 nM. As to `Cc1cn2ccnc(O[C@@H]3CC[C@@H](C)N(C(=O)c4ccsc4-c4ncccn4)C3)c2n1` [Example 14, ((2R,5R)-2-methyl-5-((2-methylimidazo[1,2-α]pyrazin-8-yl)oxy)piperidin-1-yl) (2-(pyrimidin-2-yl)thiophen-3-yl)methanone], the IC50 was determined as 36.8 nM. As for `C[C@@H]1CC[C@@H](Oc2nccn3c(C(F)F)cnc23)CN1C(=O)c1nccnc1-c1ccccn1` [Example 47, ((2R,5R)-5-((3-(difluoromethyl)imidazo[1,2-α]pyrazin-8-yl)oxy)-2-methylpiperidin-1-yl)(3-(pyridin-2-yl)pyrazin-2-yl)methanone], the figure is 64.9 nM. As for `C[C@@H]1CC[C@@H](Oc2nccn3c(C(O)C(F)F)cnc23)CN1C(=O)c1ccccc1-n1nccn1` (stereo partly drawn) [Example 67, (2-(2H-1,2,3-triazol-2-yl)phenyl)((2R,5R)-5-((3-(2,2-difluoro-1-hydroxyethyl)imidazo[1,2-a]pyrazin-8-yl)oxy)-2-methylpiperidin-1-yl)methanone], the figure is 182 nM; as for `Cc1cn2ccnc(O[C@@H]3CC[C@@H](C)N(C(=O)c4ccccc4-n4ncnn4)C3)c2n1` [Example 11, (2-(2H-tetrazol-2-yl)phenyl)((2R,5R)-2-methyl-5-((2-methylimidazo[1,2-α]pyrazin-8-yl)oxy)piperidin-1-yl)methanone], 22.2 nM; as for `C[C@@H]1CC[C@@H](Oc2nccn3c(C(F)(F)F)cnc23)CN1C(=O)c1cccnc1OCC(F)(F)F` [Example 63, ((2R,5R)-2-methyl-5-((3-(trifluoromethyl)imidazo [1,2-α]pyrazin-8-yl)oxy)piperidin-1-yl) (2-(2,2,2-trifluoroethoxy)pyridin-3-yl)methanone], 28.2 nM. Take `C[C@@H]1CC[C@@H](Oc2nccn3nccc23)CN1C(=O)c1ccsc1-c1ncccn1` [Example 75, ((2R,5R)-2-methyl-5-(pyrazolo[1,5-α]pyrazin-4-yloxy)piperidin-1-yl) (2-(pyrimidin-2-yl)thiophen-3-yl) methanone]: the IC50 was determined as 20.6 nM. With `C[C@@H]1CC[C@@H](Oc2nccc3c2cnn3C)CN1C(=O)c1ccccc1-n1nccn1` [Example 95, (2-(2H-1,2,3-triazol-2-yl)phenyl)((2R,5R)-2-methyl-5-((1-methyl-1H-pyrazolo[4,3-c]pyridin-4-yl)oxy)piperidin-1-yl)methanone] the figure was 17.8 nM; with `C[C@@H]1CC[C@@H](Oc2nccn3c(C(F)(F)F)cnc23)CN1C(=O)c1ccccc1CS(C)(=O)=O` [Example 61, ((2R,5R)-2-methyl-5-((3-(trifluoromethyl)imidazo [1,2-α]pyrazin-8-yl)oxy)piperidin-1-yl)(2-((methylsulfonyl)methyl)phenyl)methanone], 170 nM; with `C[C@@H]1CC[C@@H](Oc2nccn3nccc23)CN1C(=O)c1ccsc1-n1nccn1` [Example 70, (2-(2H-1,2,3-triazol-2-yl)thiophen-3-yl)((2R,5R)-2-methyl-5-(pyrazolo[1,5-a]pyrazin-4-yloxy)piperidin-1-yl)methanone], 9.8 nM.

In the case of `C[C@@H]1CC[C@@H](Oc2nccn3c(C(F)(F)F)cnc23)CN1C(=O)c1ccccc1-c1ncccn1` [Example 66, ((2R,5R)-2-methyl-5-((3-(trifluoromethyl)imidazo[1,2-a]pyrazin-8-yl)oxy)piperidin-1-yl)(2-(pyrimidin-2-yl)phenyl)methanone], the IC50 turned out to be 14.9 nM. Consider `Cc1cn2ccnc(O[C@@H]3CC[C@@H](C)N(C(=O)c4ccccc4C4(C#N)CC4)C3)c2n1` [Example 9, 1-(2-((2R,5R)-2-methyl-5-((2-methylimidazo[1,2-α]pyrazin-8-yl)oxy)piperidine-1-carbonyl)phenyl)cyclopropanecarbonitrile], for which the IC50 is 13.2 nM. In the case of `Cc1nc2ccnc(O[C@@H]3CC[C@@H](C)N(C(=O)c4ccccc4-n4nccn4)C3)n2n1` [Example 104, (2-(2H-1,2,3-triazol-2-yl)phenyl)((2R,5R)-2-methyl-5-((2-methyl-[1,2,4]triazolo[1,5-c]pyrimidin-5-yl)oxy)piperidin-1-yl)methanone], the IC50 is 60 nM. As for `C[C@@H]1CC[C@@H](Oc2nccn3nccc23)CN1C(=O)c1cscc1-n1nccn1` [Example 71, (4-(2H-1,2,3-triazol-2-yl)thiophen-3-yl)((2R,5R)-2-methyl-5-(pyrazolo[1,5-α]pyrazin-4-yloxy)piperidin-1-yl)methanone], the figure is 16 nM; as for `Cc1cn2ccnc(N[C@@H]3CC[C@@H](C)N(C(=O)c4ccccc4-n4nccn4)C3)c2n1` [Example 19, (2-(2H-1,2,3-triazol-2-yl)phenyl)((2R,5R)-2-methyl-5-((2-methylimidazo[1,2-a]pyrazin-8-yl)amino)piperidin-1-yl)methanone], 50.9 nM.

In the case of `C[C@@H]1CC[C@@H](Oc2nccn3nccc23)CN1C(=O)c1ccccc1-n1ncnn1` [Example 76, (2-(2H-tetrazol-2-yl)phenyl)((2R,5R)-2-methyl-5-(pyrazolo[1,5-α]pyrazin-4-yloxy)piperidin-1-yl)methanone], the IC50 is 27.8 nM.
